Counter-ions that a name gives are not always drawn. Non-standard residues stand in square brackets, D forms with d. Residues, ends and D or L forms follow the SMILES beside them. Phe(4-Cl) = N[C@@H](Cc1ccc(Cl)cc1)C(=O)O; dPhe(4-Cl) = N[C@H](Cc1ccc(Cl)cc1)C(=O)O; d2Nal = N[C@H](Cc1ccc2ccccc2c1)C(=O)O; d(hCit) = NC(=O)NCCCC[C@@H](N)C(=O)O; Lys(iPr) = CC(C)NCCCC[C@H](N)C(=O)O; d3Pal = N[C@H](Cc1cccnc1)C(=O)O
Legend:
[1] = Phase I study D-84812-Z012, single s.c. injection: pharmacokinetics of teverelix; type: in vivo, human; conditions: between the 60 mg and 90 mg doses
[2] = Phase I study D-84812-Z012, single s.c. injection: safety and tolerability; type: in vivo, human; conditions: doses of up to 90 mg, 32 healthy male volunteers
[3] = compared with degarelix; cited from earlier work
[4] = Phase I study EP-24332T-A004, repeated s.c. injections: safety and tolerability; type: in vivo, human; conditions: 2 s.c. doses of 60 mg or 90 mg at 24 h or 48 h interval
Protocol: In a second Phase I study (EP-24332T-A004), a second injection was administered 24 h or 48 h after the first in order to increase and prolong the initial peak, as well as increase the teverelix level and consequently the number of subjects castrated. As the previous Phase I study had shown 10 mg and 30 mg to be insufficient to provide a long-term suppression, 2 doses of 60 mg or 90 mg (6 subjects per group) or placebo (4 subjects) were administered at a 24 h interval and 2 doses of 90 mg at a 48 h interval. […] No critical safety findings were reported. […] The protocol of the study included 6 subjects who received 90 mg Teverelix TFA on D1; D2; D3.

Structure (SMILES)	dose proportionality [1]	tolerability [2]	local irritation at the administration site [3]	local reactions at the injection sites [4]	tolerability [4]
CC(=O)N[C@H](Cc1ccc2ccccc2c1)C(=O)N[C@H](Cc1ccc(Cl)cc1)C(=O)N[C@H](Cc1cccnc1)C(=O)N[C@@H](CO)C(=O)N[C@@H](Cc1ccc(O)cc1)C(=O)N[C@H](CCCCNC(N)=O)C(=O)N[C@@H](CC(C)C)C(=O)N[C@@H](CCCCNC(C)C)C(=O)N1CCC[C@H]1C(=O)N[C@H](C)C(N)=O [Teverelix TFA, teverelix trifluoroacetate] (Ac-[d2Nal][dPhe(4-Cl)][d3Pal]SY[d(hCit)]L[Lys(iPr)]P[dA]-NH2)	demonstrated	tolerated well	less local irritation at the administration site than degarelix	–	–
CC(=O)N[C@H](Cc1ccc2ccccc2c1)C(=O)N[C@@H](Cc1ccc(Cl)cc1)C(=O)N[C@H](Cc1cccnc1)C(=O)N[C@@H](CO)C(=O)N[C@H](Cc1ccc(O)cc1)C(=O)N[C@H](CCCCNC(N)=O)C(=O)N[C@@H](CC(C)C)C(=O)N[C@@H](CCCCNC(C)C)C(=O)N1CCC[C@H]1C(=O)N[C@H](C)C(N)=O [teverelix, Ac-D-Nal-D-pClPhe-D-Pal-Ser-Tyr-D-Hci-Leu-Lys(iPr)-Pro-D-Ala-NH2] (Ac-[d2Nal][Phe(4-Cl)][d3Pal]S[dY][d(hCit)]L[Lys(iPr)]P[dA]-NH2)	–	–	–	only mild local indurations	tolerated well

Reference: patent publication US20200000872A1, “A COMPOSITION COMPRISING AT LEAST ONE GNRH ANTAGONIST” (ANTEV LIMITED, priority 2017, published 2020)
